This test has as its system U251MG glioma cells. The test can be described thus: In vivo efficacy in athymic nude mice with subcutaneous U251MG glioma. Particulars: tumor-bearing mice; TMZ alone orally 64 mg/kg/day for 4 days, no T cells (Group III). The protocol:
The in vivo efficacy of the IL13E13K.R109K-2A-P140KMGMT construct was tested in mice using the viral particles generated as described in Example 2. Fifty athymic nude mice were injected subcutaneously (left flank) with U251MG glioma cells (40 mice; Groups I-IV) or PBS (10 mice). Four days after glioma implantation, 3 groups of mice (Groups I, II and III, 10 mice/group) were treated orally with TMZ (64 mg/kg/day by oral gavage) for 4 days. On the 5th day after glioma implantation, the 3 groups of mice that had been treated orally with TMZ were treated as follows: Group I: an intra-tumoral injection of the IL13E13K.R109KCAR-2A-P140KMGMT construct (TMZ-resistant); Group II: the IL13 IL13E13K.R109K construct with no MGMT (TMZ sensitive); Group III: treatment with PBS only (no injection of T cells). Group IV received no T cells or TMZ treatment. The mice were monitored for visual tumor growth, behavioral changes, and morbidity until day 90 after injection of the T cells at which time the mice were sacrificed as required by IACUC restrictions.

SMILES strings stand for the structures.

As to `Cn1nnc2c(C(N)=O)ncn2c1=O` [TMZ, temozolomide], the median survival time was found to be 36 days and the survival rate is on record as 20%.
